Measured values published in US20230398130A1, “METHODS AND COMPOSITIONS FOR DIFFERENTIATING STEM CELLS” (Massachusetts Institute of Technology, priority 2020, published 2023).

Key:
Assay type in all cases: cell-based, murine
ISC-enriched organoids = assay: Primary screen, 384-well 2.5-D organoid differentiation (ENR+CD, 6 days): carbachol-induced lysozyme secretion (LYZ.S); conditions: primary screen; for Z.LYZ.S: standard z score; for SSMD.LYZ.S: strictly standardized mean difference
Excerpt: High-throughput screening.

lysozyme (LYZ) = assay: Western blotting of lysozyme in 3D-cultured intestinal organoids; conditions: organoids cultured 6 days in ENR+CV, ENR+CD or ENR
Excerpt: Western blotting. ISC-enriched organoids cultured in 3D Matrigel with ENRCV media were passaged to 24-well plate in 3D Matrigel with ENRCV. At day zero, media were replaced to ENR or ENRCD with or without indicated compounds, and media were replaced every other day. At day six, cells were harvested from Matrigel by mechanical disruption and suspended in basal media. Cell pellets were lysed with Pierce© IP lysis buffer (ThermoFisher, 87787) containing Halt™ Protease Inhibitor Cocktail, EDTA-Free (ThermoFisher, 87785) after 3-minute centrifuge at 300×g at 4° C. Cell extracts were resolved by NuPAGE© SDS-PAGE Gel system (ThermoFisher) and electroblotted onto polyvinylidene difluoride membranes using Criterion™ Blotter (Biorad). The membranes were blocked with 2% Blotting-Grade Blocker (Biorad, 1706404) in TBS-T (50 mM Tris-HCl, 150 mM NaCl, and 0.1% Tween 20, pH 8.0) and then probed with appropriate antibodies. Detection was performed using ECL Select™ Western Blotting Detection Reagent (Amersham, 45-000-999) and ImageQuant LAS4000 (GE Healthcare).
Western blotting. Organoid-containing gel was homogenized in basal medium and centrifuged at 300 rcf for 3 min. Organoid pellet was lysed with ice-cold Pierce IP Lysis Buffer (Thermo Fisher Scientific, #87787) containing Halt Protease Inhibitor Cocktail, EDTA-Free (Thermo Fisher Scientific, #87785) and incubated on ice for 20 min. The lysate was centrifuged at 17,000 rcf for 10 min, and the supernatant was combined with NuPAGE LDS Sample Buffer (Thermo Fisher Scientific, NP0007). Protein concentration was determined by Pierce 660 nm Protein Assay (Thermo Fisher Scientific, #22660) and normalized to the lowest concentration among each sample set. […] Chemiluminescent signals were detected by LAS4000 (GE Healthcare) using Amersham ECL Select Western Blotting Detection Reagent (GE Healthcare, #45-000-999), and total protein signals were obtained by Odyssey Imaging System (LI-COR Biosciences) using REVERT Total Protein Stain Kit (LI-COR Biosciences, #926-11010).

Paneth cells = assay: Immunofluorescent imaging of organoids: LYZ+ cells per organoid area
Description: Immunofluorescent imaging. For immunofluorescence staining of organoids, intestinal organoids in Matrigel were fixed with 4% paraformaldehyde, then transferred to centrifuge tube. After washing with PBS, the isolated organoids were permeabilized with 1% Triton X followed by incubation with blocking buffer (1% BSA+3% Donkey Serum+0.2% Triton X in PBS) at RT. The organoids were then stained with primary antibodies and fluorescent dye-labeled secondary antibodies as well as with DAPI. Slides were covered with […]® Mounting Media (VECTOR). The following primary and secondary antibodies were used for the staining: rabbit anti-Lysozyme (1:1000, Thermo Fisher Scientific), rat anti-E-cadherin (1:1000, Thermo Fisher Scientific), Alexa Fluor 488 and 568 secondary antibodies (1:1000, Invitrogen). Images were acquired with a confocal laser scanning microscope (Nikon Eclipse 90i). For the analysis of Lysozyme+ cells per organoid area, the number of counted Lysozyme+ cells were normalized to measured organoid surface area. Image J was used for the data analysis.

[1] = 1st of the 4 dose lines of the treatment (dose not given)
[2] = 2nd of the 4 dose lines of the treatment (dose not given)
[3] = 3rd of the 4 dose lines of the treatment (dose not given)
[4] = 4th of the 4 dose lines of the treatment (dose not given)

O=C(/C=C\n1cnc(-c2cc(C(F)(F)F)cc(C(F)(F)F)c2)n1)NNc1cnccn1 [KPT-330]
Z.LYZ.S (ISC-enriched organoids; [1]): 1.677 | Z.LYZ.S (ISC-enriched organoids; [2]): −1.821 | Z.LYZ.S (ISC-enriched organoids; [3]): −2.523 | Z.LYZ.S (ISC-enriched organoids; [4]): −2.733 | SSMD.LYZ.S (ISC-enriched organoids; [1]): 1.329 | SSMD.LYZ.S (ISC-enriched organoids; [2]): −0.894 | SSMD.LYZ.S (ISC-enriched organoids; [3]): −1.575 | SSMD.LYZ.S (ISC-enriched organoids; [4]): −1.599 | LYZ abundance per unit protein (Western blotting) (lysozyme (LYZ)): appreciably increase LYZ abundance | LYZ+ Paneth cell number (IF imaging) (Paneth cells; ENR with or without 160 nM KPT-330, 3 days): pro-Paneth differentiation effect is also observed | LYZ+ Paneth cell number (IF imaging) (Paneth cells; ENR+CD with 160 nM KPT-330, 6 days): an increase in Paneth cell number
